In PubChem BioAssay AID1963963 (Molecular Pharmacology Branch, DTP, NCI, 2024):
Several values for one entry are separate records, joined by “and”; a condition that tells them apart may be missing. Equal values may be shown once.

System: 958667-338-R-J2-PDC tumor spheroids viability
Experiment: Anticancer human tumor 958667-338-R-J2-PDC patient-derived colon adenocarcinoma cell line growth inhibition [PI3K]
Conditions: spheroids with HUVEC and MSC; for viability, T/C: stronger effect = lower value
Source text: Combinatorial screen of targeted agents with the PI3K inhibitors inavolisib, alpelisib, duvelisib, and copanlisib in multi-cell type tumor spheroids
A high-throughput screen of multi-cell type tumor spheroids was designed to identify active combinations of targeted small molecules and PI3K pathway inhibitors. Complex spheroids include a stromal component modeled by human endothelial cells (HUVEC) and fibroblasts modeled by human mesenchymal stem cells (MSCs). The concentration ranges selected for each drug and investigational agent were based upon clinically achievable concentrations if the clinical Cmax of the agent was known.
Compounds. The drugs and investigational agents: inavolisib (NSC800729), alpelisib (NSC765974), duvelisib (NSC772469), copanlisib (NSC816437), ipatasertib (NSC767898), afuresertib (NSC778305), talazoparib (NSC767125), sapanisertib (NSC764658), selumetinib (NSC741078), tovorafenib (DAY101, NSC766906), vemurafenib (NSC761431), ravoxertinib (NSC781343), sotorasib (NSC818433), MRTX1133 (NSC 836407), abemaciclib (NSC 768073), palbociclib (NSC758247), venetoclax (NSC 766270), SY5609 (NSC837396), enzalutamide (NSC755605), and darolutamide (NSC825331), were obtained from the National Cancer Institute (NCI) Developmental Therapeutics Program Chemical Repository. The FDA-approved anticancer drug set is available from the NCI Developmental Therapeutics Program. […] The stock solutions were prepared in dimethyl sulfoxide (DMSO, Sigma-Aldrich, St. Louis, MO, cat. D2650) at 800-fold the tested concentration and stored at -70 degrees C prior to their use. All drugs and investigational agents were tested over a range starting from a high concentration at or near the clinical Cmax and decreasing in half-log increments. If the clinical Cmax for an agent had not been determined, the highest concentration tested was 10 microM.
Cell Culture. All cells were maintained in an incubator at 37 degrees C and 5% CO2 with 95% humidity. The PDC lines were cultured according to standard operating procedures established by the NCI PDMR (https://pdmr.cancer.gov/sops/default.htm). All PDCs were thawed and cultured in Matrigel-coated flasks prepared with a working solution of 1X Ham's F-12 nutrient mix, without supplementation (Invitrogen, Waltham, MA, cat. 11765054), 100 U/mL penicillin-streptomycin (Invitrogen, cat. 15140122), and 2.5% Matrigel (Corning Inc., Corning, NY, cat. 354248) for the first three passages. The 354836-022-R-J1-PDC, 475296-252-R-J1-PDC, and 997726-040-R-J2-PDC lines were cultured in 6A media, which includes advanced DMEM/F-12 (Thermo Fisher Scientific, cat. 12634028), 10 mM HEPES (Thermo Fisher Scientific, cat. 15630080), 1X GlutaMAX supplement (Thermo Fisher Scientific, cat. 35050061), 0.1 mg/mL primocin (InvivoGen, San Diego, CA, cat. ant-pm-2), 10% defined fetal bovine serum, heat inactivated (HyClone Laboratories Inc., Logan, UT, cat. SH30070.03HI), 50% L-WRN conditioned media (ATCC, cat. CRL-3276), 1.25 mM N-Acetyl-L-cysteine (Sigma-Aldrich, cat. A9165), 10 mM nicotinamide (Sigma-Aldrich, cat. N0636), 1X B-27 supplement (Thermo Fisher Scientific, cat. 17504044), 1X N-2 supplement (Thermo Fisher Scientific, cat. 17502048), and 10 microM Y-27632 dihydrochloride (Tocris Bioscience, Bristol, United Kingdom, cat. 1254). The 624824-186-R-J2-PDC line was cultured in 6C/Colon 1B media, which includes all 6A media components plus 50 ng/mL human EGF recombinant protein (Thermo Fisher Scientific, cat. PHG0311). […]

[1] = compound alone, run of 06/12/2023
[2] = compound alone, run of 06/13/2023
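Note: spheroids exposed to compounds for seven days before readout.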

| Compound | viability, T/C (compound 0.0316 µM) | viability, T/C (compound 0.1 µM) | viability, T/C (compound 0.316 µM) | viability, T/C (compound 1 µM) | viability, T/C (compound 3.16 µM) | viability, T/C (compound 10 µM) | IC50 (curve of compound) | also measured |
| --- | --- | --- | --- | --- | --- | --- | --- | --- |
| C#Cc1c(F)ccc2cc(O)cc(-c3ncc4c(N5CC6CCC(C5)N6)nc(OCC56CCCN5CC(F)C6)nc4c3F)c12 (centres undefined) | 98.5% [middle of 4 runs] | 103% [middle of 4 runs] | 101% [middle of 4 runs] | 97.3% [middle of 4 runs] | 86.7% [middle of 4 runs] | 63.8% [middle of 4 runs] | > 10 µM |  |
| C=CC(=O)N1CCN(c2nc(=O)n(-c3c(C)ccnc3C(C)C)c3nc(-c4c(O)cccc4F)c(F)cc23)C(C)C1 (centres undefined) |  | 108% [middle of 4 runs] | 103% [middle of 4 runs] | 114% [middle of 4 runs] | 113% [middle of 4 runs] |  | > 10 µM |  |
| CC(=O)c1c(C)c2cnc(Nc3ccc(N4CCNCC4)cn3)nc2n(C2CCCC2)c1=O | 99.5% and 114% (2×) and 106% | 93.8% [middle of 4 runs] |  |  |  |  | > 0.1 µM | viability, T/C (compound 0.000316 µM): 110% [middle of 4 runs]; viability, T/C (compound 0.00316 µM): 107% [middle of 4 runs]; viability, T/C (compound 0.01 µM): 109% (2×) and 88% and 111% |
| CC(C)NCC(C(=O)N1CCN(c2ncnc3c2C(C)CC3O)CC1)c1ccc(Cl)cc1 (centres undefined) | 99.2% and 102% and 101% | 92.6% and 114% and 87.9% | 101% and 113% and 108% | 78.6% and 73.4% and 101% | 78.8% and 72.3% and 119% | 72.2% and 69.7% and 80.9% | > 10 µM |  |
| CC(C)n1nc(-c2ccc3oc(N)nc3c2)c2c(N)ncnc21 | 72.6% [middle of 4 runs] | 44.5% [middle of 4 runs] |  |  |  |  | 80.6 nM [middle of 4 runs] | viability, T/C (compound 0.000316 µM): 93.8% [middle of 4 runs]; viability, T/C (compound 0.001 µM): 97.1% [middle of 4 runs]; viability, T/C (compound 0.01 µM): 94.7% [middle of 4 runs] |
| CC(Cn1ccc(-c2ccc(C#N)c(Cl)c2)n1)NC(=O)c1cc(C(C)O)[nH]n1 (centres undefined) | 105% [middle of 4 runs] | 92.6% [middle of 4 runs] | 111% [middle of 4 runs] | 104% [middle of 4 runs] | 107% [middle of 4 runs] | 89.4% [middle of 4 runs] | > 10 µM |  |
| CC(Nc1ccc2c(c1)OCCn1cc(N3C(=O)OCC3C(F)F)nc1-2)C(N)=O (centres undefined) | 96.9% [middle of 7 runs] | 80.8% [middle of 7 runs] | 70.7% [middle of 7 runs] | 64.9% [middle of 7 runs] |  |  |  | viability, T/C (compound 0.01 µM): 100% [middle of 7 runs]; IC50 [1]: > 1 µM |
| CC(Nc1ncnc2nc[nH]c12)c1cc2cccc(Cl)c2c(=O)n1-c1ccccc1 (centres undefined) |  | 93.8% [middle of 8 runs] |  | 90.8% [middle of 8 runs] |  | 92.9% [middle of 8 runs] |  | IC50 [2]: > 10 µM |
| CC1(C)CCC(CN2CCN(c3ccc(C(=O)NS(=O)(=O)c4ccc(NCC5CCOCC5)c([N+](=O)[O-])c4)c(Oc4cnc5[nH]ccc5c4)c3)CC2)=C(c2ccc(Cl)cc2)C1 |  |  | 106% [middle of 4 runs] | 109% (2×) and 87% and 112% | 98.7% [middle of 4 runs] |  | > 10 µM and 6.88 µM and 6.97 µM |  |
| CC1(C)CCC(Nc2ncc(C(F)(F)F)c(-c3c[nH]c4c(P(C)(C)=O)c(C#N)ccc34)n2)CN1 (centres undefined) | 97.9% [middle of 4 runs] |  |  | 66.5% [middle of 4 runs] | 64.5% [middle of 4 runs] | 36.4% [middle of 4 runs] | 5.09 µM [middle of 4 runs] |  |
| CCCS(=O)(=O)Nc1ccc(F)c(C(=O)c2c[nH]c3ncc(-c4ccc(Cl)cc4)cc23)c1F |  | 94.2% and 87.7% and 113% (2×) | 107% [middle of 4 runs] | 114% [middle of 4 runs] | 116% [middle of 4 runs] | 10.9% [middle of 4 runs] | 6.27 µM [middle of 4 runs] |  |
| CCN1CCN(Cc2ccc(Nc3ncc(F)c(-c4cc(F)c5nc(C)n(C(C)C)c5c4)n3)nc2)CC1 | 91% and 87.5% and 98.1% | 72.1% and 75.9% and 98.9% | 78.8% and 76.1% and 79.7% | 74.5% and 70.1% and 72.5% |  |  | > 1 µM | viability, T/C (compound 0.00316 µM): 108% and 102% and 109%; viability, T/C (compound 0.01 µM): 86.7% and 90.8% and 95.2% |
| CNC(=O)c1ccc(N2C(=S)N(c3ccc(C#N)c(C(F)(F)F)c3)C(=O)C2(C)C)cc1F | 110% [middle of 4 runs] | 97% [middle of 4 runs] |  | 112% and 103% (2×) and 100% | 95.8% and 104% and 124% (2×) | 103% (2×) and 115% and 88.7% | > 10 µM |  |
| COc1c(OCCCN2CCOCC2)ccc2c3n(c(=NC(=O)c4cnc(N)nc4)nc12)CCN3 | 71.9% [middle of 8 runs] | 54% [middle of 8 runs] | 38.8% [middle of 8 runs] | 18.2% [middle of 8 runs] |  |  |  | viability, T/C (compound 0.00316 µM): 92.6% [middle of 8 runs]; IC50 [2]: 147 nM [middle of 8 runs] |
| C[C@@H](NC(=O)c1ncnc(N)c1Cl)c1ncc(C(=O)Nc2cc(C(F)(F)F)c(Cl)cn2)s1 | 104% [middle of 4 runs] | 103% [middle of 4 runs] | 106% [middle of 4 runs] |  | 95.3% [middle of 4 runs] | 98.6% [middle of 4 runs] | > 10 µM |  |
| Cc1nc(NC(=O)N2CCCC2C(N)=O)sc1-c1ccnc(C(C)(C)C(F)(F)F)c1 (centres undefined) |  |  |  |  | 71.5% [middle of 8 runs] | 66% [middle of 8 runs] |  | IC50 [1]: > 10 µM |
| Cn1cnc2c(F)c(Nc3ccc(Br)cc3Cl)c(C(=O)NOCCO)cc21 |  |  |  |  |  |  | 377 nM [middle of 4 runs] | viability, T/C (compound 0.00949 µM): 96.5% [middle of 4 runs]; viability, T/C (compound 0.0949 µM): 85.5% [middle of 4 runs]; viability, T/C (compound 0.3 µM): 54.2% [middle of 4 runs]; viability, T/C (compound 0.949 µM): 35.9% [middle of 4 runs]; viability, T/C (compound 3 µM): 20.5% [middle of 4 runs] |
| Cn1ncc(Cl)c1-c1cc(C(=O)NC(CN)Cc2cccc(F)c2)sc1Cl (centres undefined) | 94.3% [middle of 4 runs] | 92.4% [middle of 4 runs] | 91.9% [middle of 4 runs] | 74.7% [middle of 4 runs] | 53.8% [middle of 4 runs] | 39.3% [middle of 4 runs] |  |  |
| Cn1nccc1Nc1nccc(-c2ccn(C(CO)c3ccc(Cl)c(F)c3)c(=O)c2)n1 (centres undefined) | 102% [middle of 4 runs] |  | 95.4% [middle of 4 runs] | 86.6% [middle of 4 runs] | 89.5% [middle of 4 runs] |  | > 10 µM |  |
| Cn1ncnc1[C@H]1c2n[nH]c(=O)c3cc(F)cc(c23)N[C@@H]1c1ccc(F)cc1 | 103% [middle of 4 runs] | 99.1% [middle of 4 runs] |  |  |  |  | > 0.1 µM | viability, T/C (compound 0.000316 µM): 115% [middle of 4 runs]; viability, T/C (compound 0.001 µM): 110% [middle of 4 runs]; viability, T/C (compound 0.00316 µM): 97.5% [middle of 4 runs] |
